From US20210255193A1, “LYSINE REACTIVE PROBES AND USES THEREOF” (The Scripps Research Institute, priority 2017, published 2021)
Values belong to the compound of their own block, whether it stands above or below them.

Assays:
Test in all cases: competitive isoTOP-ABPP
Assay type in all cases: binding
[1] = target: T1, PFKP 6-phosphofructokinase type C (Homo sapiens, UniProt Q01813); design: key to isoTOP-ABPP reactivity ratio at lysine Q01813_K688: R = MS1 peak area ratio, DMSO (heavy) / compound-treated (light); settings: for isoTOP-ABPP reactivity ratio at lysine Q01813_K688 / isoTOP-ABPP ratio (R) at liganded lysine Q01813_K688 / R value (DMSO/fragment) for probe 1 labeling: 50 uM, in vitro; for isoTOP-ABPP reactivity ratio at lysine Q01813_K688 / R value (DMSO/fragment) for probe 1 labeling: 231 sol; for isoTOP-ABPP ratio (R) at liganded lysine Q01813_K688: sol, 231; for R value (DMSO/fragment) for probe 1 labeling: Q01813_K688
T1 construct: isoTOP-ABPP experiments performed in cell lysates (in vitro); endogenous in cells
T1 sequence (Q01813 1-784): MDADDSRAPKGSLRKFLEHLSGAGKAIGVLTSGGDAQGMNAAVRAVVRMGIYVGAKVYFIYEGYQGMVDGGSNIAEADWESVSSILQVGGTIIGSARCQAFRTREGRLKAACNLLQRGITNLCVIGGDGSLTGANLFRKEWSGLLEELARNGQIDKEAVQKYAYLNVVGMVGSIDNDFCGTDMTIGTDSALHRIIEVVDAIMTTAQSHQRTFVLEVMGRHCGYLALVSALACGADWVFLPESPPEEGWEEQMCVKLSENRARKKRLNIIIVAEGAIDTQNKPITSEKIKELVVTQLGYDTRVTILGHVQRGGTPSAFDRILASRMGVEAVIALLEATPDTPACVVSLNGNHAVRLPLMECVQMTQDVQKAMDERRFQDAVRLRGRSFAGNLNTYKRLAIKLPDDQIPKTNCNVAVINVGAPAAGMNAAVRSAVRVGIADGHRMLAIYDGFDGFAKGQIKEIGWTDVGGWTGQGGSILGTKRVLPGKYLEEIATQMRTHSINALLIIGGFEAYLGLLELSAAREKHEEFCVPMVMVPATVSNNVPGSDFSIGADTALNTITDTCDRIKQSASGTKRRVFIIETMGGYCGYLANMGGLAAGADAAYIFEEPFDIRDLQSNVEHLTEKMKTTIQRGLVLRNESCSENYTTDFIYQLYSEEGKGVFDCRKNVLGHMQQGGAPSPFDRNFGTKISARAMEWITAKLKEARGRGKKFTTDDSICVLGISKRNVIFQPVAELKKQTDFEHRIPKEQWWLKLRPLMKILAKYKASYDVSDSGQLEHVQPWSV
Experimental: (§1) In vitro covalent fragment treatment for isoTOP-ABPP. All compounds were made up as solutions in DMSO (100×) and were used at a final concentration of 50 μM for activated esters and 100 μM for guanidinylating agents. For each profiling sample, 0.5 ml of lysate was treated with 5 μl of the 100× compound stock solution or 5 μl of DMSO. Samples were treated with activated esters for
(§2) STP-alkyne labeling and click chemistry. For concentration-dependent reactivity measurements by isoTOP-ABPP, 0.5 ml proteome aliquots were treated at ambient temperature with 1 mM STP-alkyne 1 (5 μl of 100 mM stock in DMSO) and 0.1 mM STP alkyne 1 (5 μl of 10 mM stock in DMSO), respectively. For competitive isoTOP-ABPP, after in vitro fragment treatment (detailed above), the samples were labeled for 1 h at ambient temperature with 0.1 mM STP-alkyne 1 (5 μl of 10 mM stock in DMSO). Samples were conjugated by copper-mediated azide-alkyne cycloaddition (CuAAC) to either the light (1 mM STP-alkyne or fragment treated) or heavy (0.1 mM STP-alkyne or DMSO treated) TEV tags (10 μl of 5 mM stocks in DMSO, final concentration=100 μM) using tris(2-carboxyethyl)phosphine hydrochloride
(§3) R value calculation and processing. The ratios of light and heavy MS1 peaks for each unique peptide were quantified with a CIMAGE software using default parameters (3 MS1 acquisitions per peak and signal to noise threshold set to 2.5). For reactivity measurements by isoTOP-ABPP, the R value was calculated from the ratio of MS1 peak areas, comparing the 1 mM STP alkyne sample (light TEV tag) with the 0.1 mM STP alkyne sample (heavy TEV tag). For competitive isoTOP-ABPP, the R value was calculated from the ratio of MS1 peak areas, comparing the DMSO treated sample (heavy TEV tag) with the compound treated sample (light TEV tag). […] Ratios for unique peptide entries are calculated for each experiment; overlapping peptides with the same modified lysine (for example, different charge states, MudPIT chromatographic steps or tryptic termini) are grouped together and the median ratio is reported as the final ratio (R). The peptide ratios reported by CIMAGE were further filtered to ensure the removal or correction of low-quality ratios in each individual data set. The quality filters applied were the following: removal of half tryptic peptides; for ratios with high standard deviations from the median (90% of the median or above) the lowest ratio was taken instead of the median; removal of peptides with R=20 and only a single MS2 event triggered during the elution of the parent ion; manual annotation of all the peptides with ratios of 20, removing any peptides with low quality elution profiles that remained after the previous curation steps (only done for competitive isoTOP-ABPP).
(§4) Cross-data processing for fragment screening. For compound treated samples, biological replicates of the same condition were averaged, if the standard deviation was below 60% of the mean; otherwise, for lysines with at least one R value <4 for a particular compound, the lowest value of the ratio set was taken. For lysines, where all R values for a particular compound were ≥4, the average was reported. For peptides containing several possible modified lysines, the lysine with the highest number of quantification events was used for analysis and the remaining, redundant peptides were reported as alternative modification sites. Peptides included in the aggregate dataset (those used for further bioinformatics and statistical analyses) were required to have been quantified in 2 experiments for competitive isoTOP-ABPP. Lysines were categorized as liganded, if they had at least one ratio R≥4 (hit fragments). For liganded lysines with R=20 for all liganding events, lysines were required to have been quantified with R=20 in two separate experiments and were further required to have been quantified with R<20 in one additional experiment.

[2] = target: T2, POLR2L DNA-directed RNA polymerases I, II, and III subunit (Homo sapiens, UniProt P62875); settings: for isoTOP-ABPP reactivity ratio at lysine P62875_K67 / R value (DMSO/fragment) for probe 1 labeling: 231 sol; for R value (DMSO/fragment) for probe 1 labeling: P62875_K67
T2 construct: isoTOP-ABPP experiments performed in cell lysates (in vitro); endogenous in cells; host or cells: soluble proteome of human cancer cell lines (MDA-MB-231, Ramos, Jurkat)
Experimental: as §1, §2, §3, §4

[3] = target: T3, DYNC1H1 Cytoplasmic dynein 1 heavy chain 1 (Homo sapiens, UniProt Q14204); settings: for isoTOP-ABPP reactivity ratio at lysine Q14204_K1649 / isoTOP-ABPP ratio (R) at liganded lysine Q14204_K1649 / R value (DMSO/fragment) for probe 1 labeling: 50 uM, in vitro; for isoTOP-ABPP reactivity ratio at lysine Q14204_K1649 / R value (DMSO/fragment) for probe 1 labeling: 231 sol; for isoTOP-ABPP ratio (R) at liganded lysine Q14204_K1649: sol, 231; for R value (DMSO/fragment) for probe 1 labeling: Q14204_K1649
T3 construct: isoTOP-ABPP experiments performed in cell lysates (in vitro); endogenous in cells; host or cells: soluble proteome of human cancer cell lines (MDA-MB-231, Ramos, Jurkat)
Experimental: as §1, §2, §3, §4

CUL2 Cullin-2 = target: T4, CUL2 Cullin-2 (Homo sapiens, UniProt Q13617); settings: for isoTOP-ABPP reactivity ratio at lysine Q13617_K489 / isoTOP-ABPP ratio (R) at liganded lysine Q13617_K489 / R value (DMSO/fragment) for probe 1 labeling: 50 uM, in vitro; for isoTOP-ABPP reactivity ratio at lysine Q13617_K489 / R value (DMSO/fragment) for probe 1 labeling: 231 sol; for isoTOP-ABPP ratio (R) at liganded lysine Q13617_K489: sol, 231; for R value (DMSO/fragment) for probe 1 labeling: Q13617_K489
T4 construct: isoTOP-ABPP experiments performed in cell lysates (in vitro); endogenous in cells; host or cells: soluble proteome of human cancer cell lines (MDA-MB-231, Ramos, Jurkat)
Experimental: as §1, §2, §3, §4

[4] = target: T5, UCHL5 Ubiquitin carboxyl-terminal hydrolase isozyme L5 (Homo sapiens, UniProt Q9Y5K5); settings: for isoTOP-ABPP ratio (R) at liganded lysine Q9Y5K5_K323: sol, 231
T5 construct: endogenous in cells; host or cells: MDA-MB-231 (soluble fraction of lysate)
T5 sequence (Q9Y5K5 1-329): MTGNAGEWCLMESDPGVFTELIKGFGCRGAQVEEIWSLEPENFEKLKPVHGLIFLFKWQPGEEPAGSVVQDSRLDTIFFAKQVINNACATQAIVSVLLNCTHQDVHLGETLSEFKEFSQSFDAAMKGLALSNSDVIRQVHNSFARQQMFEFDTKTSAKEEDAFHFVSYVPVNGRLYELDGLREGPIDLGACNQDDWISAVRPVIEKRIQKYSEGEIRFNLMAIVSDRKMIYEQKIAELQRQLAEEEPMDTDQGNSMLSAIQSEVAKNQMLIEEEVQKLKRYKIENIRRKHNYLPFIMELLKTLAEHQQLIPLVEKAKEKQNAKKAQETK
Experimental: as §1, §2, §3, §4

T3 sequence (Q14204 whole entry, the tested form may be a part): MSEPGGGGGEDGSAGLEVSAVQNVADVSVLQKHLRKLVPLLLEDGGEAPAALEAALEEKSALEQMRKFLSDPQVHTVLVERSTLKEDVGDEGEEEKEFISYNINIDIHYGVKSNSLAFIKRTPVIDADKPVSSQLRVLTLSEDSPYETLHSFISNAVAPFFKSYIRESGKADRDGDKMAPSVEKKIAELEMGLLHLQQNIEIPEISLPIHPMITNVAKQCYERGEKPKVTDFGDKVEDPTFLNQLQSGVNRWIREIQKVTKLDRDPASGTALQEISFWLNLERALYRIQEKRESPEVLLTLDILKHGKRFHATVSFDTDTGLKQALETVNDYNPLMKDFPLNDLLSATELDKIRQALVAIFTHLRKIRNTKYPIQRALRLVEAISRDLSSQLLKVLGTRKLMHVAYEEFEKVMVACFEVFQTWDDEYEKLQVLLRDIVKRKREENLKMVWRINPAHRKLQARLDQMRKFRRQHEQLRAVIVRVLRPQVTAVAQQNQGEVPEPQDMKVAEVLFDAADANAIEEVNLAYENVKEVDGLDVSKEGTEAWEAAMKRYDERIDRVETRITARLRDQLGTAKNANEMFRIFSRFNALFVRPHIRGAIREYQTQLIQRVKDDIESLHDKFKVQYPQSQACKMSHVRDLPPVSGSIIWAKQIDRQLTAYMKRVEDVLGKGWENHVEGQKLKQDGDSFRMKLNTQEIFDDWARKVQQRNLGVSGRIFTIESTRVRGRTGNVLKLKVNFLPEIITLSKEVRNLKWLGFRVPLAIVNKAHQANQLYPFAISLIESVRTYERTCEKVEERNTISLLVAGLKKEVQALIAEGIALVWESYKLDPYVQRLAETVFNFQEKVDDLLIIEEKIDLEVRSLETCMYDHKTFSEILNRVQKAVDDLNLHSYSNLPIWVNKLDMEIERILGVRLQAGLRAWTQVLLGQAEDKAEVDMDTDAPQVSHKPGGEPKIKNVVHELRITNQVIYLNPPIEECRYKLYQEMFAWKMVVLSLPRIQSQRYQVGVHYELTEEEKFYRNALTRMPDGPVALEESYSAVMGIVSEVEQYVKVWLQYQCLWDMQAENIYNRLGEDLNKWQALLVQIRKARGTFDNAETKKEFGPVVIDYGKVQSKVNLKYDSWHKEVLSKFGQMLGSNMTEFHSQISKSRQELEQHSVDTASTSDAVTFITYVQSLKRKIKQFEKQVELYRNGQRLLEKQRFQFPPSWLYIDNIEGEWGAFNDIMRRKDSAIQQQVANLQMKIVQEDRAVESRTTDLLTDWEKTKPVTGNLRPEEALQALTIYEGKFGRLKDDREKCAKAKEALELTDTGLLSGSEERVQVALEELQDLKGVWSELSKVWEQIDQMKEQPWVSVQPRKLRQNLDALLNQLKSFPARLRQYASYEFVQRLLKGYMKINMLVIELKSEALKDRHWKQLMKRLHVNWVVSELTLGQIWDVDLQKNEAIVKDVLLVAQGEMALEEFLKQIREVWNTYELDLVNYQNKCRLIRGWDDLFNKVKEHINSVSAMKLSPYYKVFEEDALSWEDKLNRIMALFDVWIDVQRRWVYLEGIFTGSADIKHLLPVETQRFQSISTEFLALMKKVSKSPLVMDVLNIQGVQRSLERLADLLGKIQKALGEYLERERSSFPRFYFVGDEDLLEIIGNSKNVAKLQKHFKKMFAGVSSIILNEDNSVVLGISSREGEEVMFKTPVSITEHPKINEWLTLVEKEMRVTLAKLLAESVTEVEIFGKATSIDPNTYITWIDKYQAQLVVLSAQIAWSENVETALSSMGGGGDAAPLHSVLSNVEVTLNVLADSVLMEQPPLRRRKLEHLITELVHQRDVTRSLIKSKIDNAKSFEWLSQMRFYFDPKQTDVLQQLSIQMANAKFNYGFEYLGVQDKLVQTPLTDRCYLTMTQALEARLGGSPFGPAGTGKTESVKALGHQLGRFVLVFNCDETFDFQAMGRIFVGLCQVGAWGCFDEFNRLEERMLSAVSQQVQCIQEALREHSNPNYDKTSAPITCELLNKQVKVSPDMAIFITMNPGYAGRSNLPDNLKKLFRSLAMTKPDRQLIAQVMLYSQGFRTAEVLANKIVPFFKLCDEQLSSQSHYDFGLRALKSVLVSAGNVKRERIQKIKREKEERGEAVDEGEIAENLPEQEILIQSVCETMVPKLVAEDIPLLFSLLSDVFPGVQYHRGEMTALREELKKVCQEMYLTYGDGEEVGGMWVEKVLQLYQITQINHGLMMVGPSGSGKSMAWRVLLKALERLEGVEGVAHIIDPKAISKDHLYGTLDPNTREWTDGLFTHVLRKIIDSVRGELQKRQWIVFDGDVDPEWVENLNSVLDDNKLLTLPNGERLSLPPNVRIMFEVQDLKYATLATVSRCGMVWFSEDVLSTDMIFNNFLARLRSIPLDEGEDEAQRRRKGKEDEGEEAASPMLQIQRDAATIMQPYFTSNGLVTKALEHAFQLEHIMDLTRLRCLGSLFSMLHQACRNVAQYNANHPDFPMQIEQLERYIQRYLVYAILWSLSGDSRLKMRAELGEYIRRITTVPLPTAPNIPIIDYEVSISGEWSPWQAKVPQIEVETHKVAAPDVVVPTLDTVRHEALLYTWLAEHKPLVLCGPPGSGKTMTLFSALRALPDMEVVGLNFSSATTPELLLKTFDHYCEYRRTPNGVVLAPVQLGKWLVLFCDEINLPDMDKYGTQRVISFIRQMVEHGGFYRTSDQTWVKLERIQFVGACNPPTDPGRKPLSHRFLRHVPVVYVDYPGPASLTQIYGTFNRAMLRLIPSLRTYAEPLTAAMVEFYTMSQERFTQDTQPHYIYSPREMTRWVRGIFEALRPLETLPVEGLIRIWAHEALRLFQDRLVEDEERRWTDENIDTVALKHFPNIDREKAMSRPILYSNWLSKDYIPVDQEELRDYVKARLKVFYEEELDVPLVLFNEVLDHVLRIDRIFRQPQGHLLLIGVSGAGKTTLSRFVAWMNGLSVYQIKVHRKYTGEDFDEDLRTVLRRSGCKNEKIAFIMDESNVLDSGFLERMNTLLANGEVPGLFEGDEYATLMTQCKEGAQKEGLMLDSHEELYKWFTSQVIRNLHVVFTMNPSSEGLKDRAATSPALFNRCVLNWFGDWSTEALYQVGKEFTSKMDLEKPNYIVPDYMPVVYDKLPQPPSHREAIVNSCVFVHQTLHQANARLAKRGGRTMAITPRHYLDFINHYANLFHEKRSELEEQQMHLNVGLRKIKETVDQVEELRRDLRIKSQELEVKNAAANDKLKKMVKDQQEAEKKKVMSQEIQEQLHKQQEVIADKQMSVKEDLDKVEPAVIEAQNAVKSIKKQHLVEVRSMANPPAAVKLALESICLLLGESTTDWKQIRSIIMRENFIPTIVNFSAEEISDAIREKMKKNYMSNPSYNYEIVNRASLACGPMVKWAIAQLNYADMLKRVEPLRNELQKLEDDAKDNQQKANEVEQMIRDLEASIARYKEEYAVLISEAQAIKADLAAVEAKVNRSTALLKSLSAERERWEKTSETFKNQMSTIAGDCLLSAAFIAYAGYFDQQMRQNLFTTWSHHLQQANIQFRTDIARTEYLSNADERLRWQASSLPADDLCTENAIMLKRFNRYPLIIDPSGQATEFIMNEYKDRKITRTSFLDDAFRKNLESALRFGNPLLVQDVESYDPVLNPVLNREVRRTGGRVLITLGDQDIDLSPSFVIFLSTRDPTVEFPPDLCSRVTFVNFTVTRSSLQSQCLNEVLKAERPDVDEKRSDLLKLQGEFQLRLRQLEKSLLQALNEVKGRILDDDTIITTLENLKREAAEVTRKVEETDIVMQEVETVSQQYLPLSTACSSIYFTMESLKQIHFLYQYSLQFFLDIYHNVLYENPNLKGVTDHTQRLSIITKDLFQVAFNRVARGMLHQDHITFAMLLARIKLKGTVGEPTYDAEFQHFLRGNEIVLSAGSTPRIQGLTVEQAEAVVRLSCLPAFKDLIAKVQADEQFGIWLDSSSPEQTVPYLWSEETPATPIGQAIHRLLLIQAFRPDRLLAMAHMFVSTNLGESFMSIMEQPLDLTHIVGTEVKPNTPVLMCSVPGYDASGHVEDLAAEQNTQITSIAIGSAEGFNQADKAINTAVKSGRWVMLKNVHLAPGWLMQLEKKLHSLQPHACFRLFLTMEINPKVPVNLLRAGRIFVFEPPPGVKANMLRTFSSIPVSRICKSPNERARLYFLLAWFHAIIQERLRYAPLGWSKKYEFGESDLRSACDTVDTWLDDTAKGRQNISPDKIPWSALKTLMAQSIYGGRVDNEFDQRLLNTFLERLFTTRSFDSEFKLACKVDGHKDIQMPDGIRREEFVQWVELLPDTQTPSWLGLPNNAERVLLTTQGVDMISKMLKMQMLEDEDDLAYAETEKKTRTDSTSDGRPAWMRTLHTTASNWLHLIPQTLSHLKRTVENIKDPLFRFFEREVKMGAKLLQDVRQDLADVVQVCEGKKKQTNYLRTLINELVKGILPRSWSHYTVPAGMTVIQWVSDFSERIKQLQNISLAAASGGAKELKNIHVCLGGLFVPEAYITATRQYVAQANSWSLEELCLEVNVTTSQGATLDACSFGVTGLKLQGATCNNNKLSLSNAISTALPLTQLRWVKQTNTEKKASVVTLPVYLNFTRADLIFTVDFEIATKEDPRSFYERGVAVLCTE

isoTOP-ABPP reactivity ratio at lysine Q01813_K688 [1]: 20.0
isoTOP-ABPP reactivity ratio at lysine P62875_K67 ([2]; 50 uM, in vitro): 1.0
isoTOP-ABPP reactivity ratio at lysine Q14204_K1649 [3]: 4.2
isoTOP-ABPP reactivity ratio at lysine Q13617_K489 (CUL2 Cullin-2): 1.1
isoTOP-ABPP reactivity ratio at lysine Q9Y5K5_K323 ([4]; 50 uM, 231 sol, in vitro): 1.1
Compound: O=C(CN1C(=O)c2ccccc2C1=O)Oc1c(F)c(F)c(F)c(F)c1F [fragment 27, Pentafluorophenyl 2-(1,3-dioxoisoindolin-2-yl)acetate]

Compound: O=C(CCc1ccc2c(c1)OCO2)Oc1ccc([N+](=O)[O-])cc1[N+](=O)[O-] [fragment 45, 2,4-Dinitrophenyl 3-(benzo[d][1,3]dioxol-5-yl)propanoate]
isoTOP-ABPP ratio, lysine Q01813_K688 ([1]; 50 uM_231_sol_in vitro): 20.0
isoTOP-ABPP ratio, lysine P62875_K67 ([2]; 50 uM_231_sol_in vitro): 2.8
isoTOP-ABPP ratio, lysine Q14204_K1649 ([3]; 50 uM_231_sol_in vitro): 1.0
isoTOP-ABPP ratio, lysine Q13617_K489 (CUL2 Cullin-2; 50 uM_231_sol_in vitro): 1.2
isoTOP-ABPP ratio, lysine Q9Y5K5_K323 ([4]; 50 uM_231_sol_in vitro): 1.5

Compound: O=C(CCc1coc2cc(F)ccc2c1=O)Oc1ccc([N+](=O)[O-])cc1[N+](=O)[O-] [fragment 36, 2,4-Dinitrophenyl 3-(7-fluoro-4-oxo-4H-chromen-3-yl)propanoate]
isoTOP-ABPP ratio (R) at liganded lysine Q01813_K688 [1]: 20.0
isoTOP-ABPP ratio (R) at liganded lysine P62875_K67 ([2]; 50 uM, in vitro, sol, 231): 4.1
isoTOP-ABPP ratio (R) at liganded lysine Q14204_K1649 [3]: 1.2
isoTOP-ABPP ratio (R) at liganded lysine Q13617_K489 (CUL2 Cullin-2): 1.0
isoTOP-ABPP ratio (R) at liganded lysine Q9Y5K5_K323 ([4]; 50 uM, in vitro): 0.8

R value (DMSO/fragment) for probe 1 labeling [1]: 2.1
R value (DMSO/fragment) for probe 1 labeling ([2]; 50 uM, in vitro): 1.1
R value (DMSO/fragment) for probe 1 labeling [3]: 1.7
R value (DMSO/fragment) for probe 1 labeling (CUL2 Cullin-2): 0.9
Compound: COc1cc(CCC(=O)Oc2c(F)c(F)c(F)c(F)c2F)cc(OC)c1OC [fragment 23, Pentafluorophenyl 3-(3,4,5-trimethoxyphenyl)propanoate]

R value (DMSO/fragment) for probe 1 labeling [1]: 2.0
R value (DMSO/fragment) for probe 1 labeling ([2]; 50 uM, in vitro): 0.9
R value (DMSO/fragment) for probe 1 labeling [3]: 1.1
R value (DMSO/fragment) for probe 1 labeling (CUL2 Cullin-2): 1.0
R value (DMSO/fragment) for probe 1 labeling ([4]; Q9Y5K5_K323, 50 uM, 231 sol, in vitro): 0.8
Compound: Cn1cc(CC(=O)Oc2c(F)c(F)c(F)c(F)c2F)c2ccccc21 [fragment 22, Pentafluorophenyl 2-(1-methyl-1H-indol-3-yl)acetate]

isoTOP-ABPP reactivity ratio at lysine Q01813_K688 [1]: 15.6
isoTOP-ABPP reactivity ratio at lysine P62875_K67 ([2]; 50 uM, in vitro): 1.0
isoTOP-ABPP reactivity ratio at lysine Q14204_K1649 [3]: 1.7
isoTOP-ABPP reactivity ratio at lysine Q13617_K489 (CUL2 Cullin-2): 1.1
Compound: O=C(Oc1c(F)c(F)c(F)c(F)c1F)c1ccc2ccccc2n1 [fragment 25, Pentafluorophenyl quinoline-2-carboxylate]

Compound: CC(=O)Oc1ccc([N+](=O)[O-])cc1[N+](=O)[O-] [fragment 43, 2,4-Dinitrophenyl acetate]
isoTOP-ABPP ratio (R) at liganded lysine Q01813_K688 [1]: 3.9
isoTOP-ABPP ratio (R) at liganded lysine Q14204_K1649 [3]: 0.9
isoTOP-ABPP ratio (R) at liganded lysine Q13617_K489 (CUL2 Cullin-2): 1.2
isoTOP-ABPP ratio (R) at liganded lysine Q9Y5K5_K323 ([4]; 50 uM, in vitro): 1.0
